Results reported in patent US20230028441A1, “NOVEL HETEROARYL-TRIAZOLE COMPOUNDS AS PESTICIDES” (Bayer Aktiengesellschaft, priority 2019, published 2023).

Tests used:
Format in all cases: in vivo
[1] = system: brown planthopper (Nilaparvata lugens); assay: Nilaparvata lugens spray test; settings: in Oryza sativa, 96 h
Protocol: Solvent: 78.0 parts by weight of acetone • • 1.5 parts by weight of dimethylformamide
(§1) Emulsifier: alkylarylpolyglycol ether
(§2) To produce a suitable preparation of active compound, 1 part by weight of active compound is mixed with the stated amount of solvents and is diluted with water, containing an emulsifier concentration of 1000 ppm, to the desired concentration. Further test concentrations are prepared by dilution with emulsifier containing water.
Rice plants (Oryza sativa) are sprayed with a preparation of the active ingredient of the desired concentration and the plants are infested with the brown planthopper (Nilaparvata lugens).
After 4 days mortality in % is determined. 100% means all planthoppers have been killed and 0% means none of the planthoppers have been killed.

[2] = system: adult brown dog ticks (Rhipicephalus sanguineus); assay: Rhipicephalus sanguineus in-vitro contact test with adult brown dog ticks; settings: after 48 hours, read-out: efficacy (ticks dead or moribund); for pest or weed control at 1 µg/cm2, 100 g/ha: 1 μg/cm^2 (=100 g/ha); for pest or weed control at 5 µg/cm2, 500 g/ha: 5 μg/cm^2 (=500 g/ha)
Procedure, shortened: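 Efficacy is the percentage of adult ticks dead or moribund, meaning immotile or uncoordinated and unable to escape 45-50° C. heat within 5 min. Read 48 h after 5-10 ticks were enclosed at room temperature in acetone-coated glass tubes. Dose 5 μg/cm^2, from a 900 ppm coating solution.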

[3] = system: larvae of the banded cucumber beetle (Diabrotica balteata); assay: Diabrotica balteata spray test; settings: 168 h, after 7 days, wheat seeds, read-out: efficacy (seedlings grown up); for pest or weed control at 32 µg/disc, 100 g/ha: 100 g/ha (=32 μg/well)
Procedure, shortened: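 Efficacy (%) read at day 7: 100% means seedlings grew like untreated, uninfested controls; 0% means no seedlings grew. Wheat seeds germinated 1 day on agar, sprayed with emulsified compound solution (1000 ppm emulsifier in water), then each well infested with 10-20 larvae.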

[4] = system: adult cat fleas (Ctenocephalides felis); assay: Ctenocephalides felis in-vitro contact test, adult cat flea; settings: 5 μg/cm^2 (=500 g/ha), after 48 hours, read-out: efficacy (fleas dead or moribund)
Protocol: 9 mg compound is solved in 1 mL acetone and diluted with acetone to the desired concentration. 250 μL of the test solution is filled in 25 mL glass test tubes and homogeneously distributed on the inner walls by rotation and tilting on a shaking device (2 h at 30 rpm). With a compound concentration of 900 ppm, an inner surface of 44.7 cm^2 and a homogeneous distribution, a dose of 5 μg/cm^2 is achieved.
After the solvent has evaporated, each test tube is filled with 5-10 adult cat fleas (Ctenocephalides felis), closed with a perforated lid and incubated in a lying position at room temperature and relative humidity. After 48 hours efficacy is determined. The fleas are patted on the ground of the tubes and are incubated on a heating plate at 45-50° C. for at most 5 minutes. Immotile or uncoordinated moving fleas, which are not able to escape the heat by climbing upwards, are marked as dead or moribund.
An efficacy of 100% means all fleas are dead or moribund; 0% means no fleas are dead or moribund.

[5] = system: larvae of the southern green stink bug (Nezara viridula); assay: Nezara viridula spray test; settings: in Hordeum vulgare, 96 h
Procedure, shortened: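 Percent mortality of southern green stink bug larvae read 4 days after spraying infested Hordeum vulgare. Test solutions: compound in acetone plus dimethylformamide, diluted with emulsifier-containing water (1000 ppm alkylarylpolyglycol ether).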

[6] = system: cattle tick larvae (Rhipicephalus microplus), strain Parkhurst, resistant against synthetic pyrethroids; assay: Rhipicephalus (Boophilus) microplus in-vitro contact test, larval cattle tick; settings: 5 μg/cm^2 (=500 g/ha), after 48 hours, read-out: efficacy (larvae dead or moribund)
Procedure, shortened: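 Efficacy, 100% meaning all larvae dead or moribund, was judged at 48 h from loss of negative geotactic climbing. Larvae of the Parkhurst strain, 20–50 per tube, were exposed at 27° C and 85% humidity to acetone-coated tube surfaces; 900 ppm corresponded to 5 μg/cm^2.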

[7] = system: fall armyworm larvae (Spodoptera frugiperda); assay: Spodoptera frugiperda spray test (maize leaf sections); settings: 168 h
Procedure, shortened: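 Percent kill of Spodoptera frugiperda larvae was recorded 7 days after infesting dried, treated maize leaf sections. Spray solutions were made from an acetone/DMF compound preparation diluted with 1000 ppm emulsifier-containing water.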

[8] = system: green peach aphid (Myzus persicae); assay: Myzus persicae oral test; settings: 120 h
Protocol: Solvent: 100 parts by weight acetone
To produce a suitable preparation of active compound, 1 part by weight of active compound is mixed with the stated amount of solvent, and the concentrate is diluted with water to the desired concentration.
50 μL compound solution is filled in microtiter plates and 150 μL IPL41 insect medium (33%+15% sugar) is added to obtain a total volume of 200 μL per well. Afterwards the plates are sealed with parafilm through which a mixed population of the green peach aphid (Myzus persicae) can suck on the compound preparation.
(§3) After 5 days mortality in % is determined. 100% means all aphids have been killed and 0% means none of the aphids have been killed.

[9] = system: adult engorged female ticks (Rhipicephalus microplus); assay: Rhipicephalus (Boophilus) microplus injection test; settings: 168 h, egg deposition after 7 days, read-out: efficacy (infertile eggs); for pest or weed control at 0.004 mg: 4 μg/animal; for pest or weed control at 0.02 mg: 20 μg/animal
Procedure, shortened: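 Efficacy is the share of infertile eggs: 100% means none are fertile, 0% means all are fertile. Egg deposition was checked 7 days after injecting 1 μL of DMSO-diluted compound into the abdomen of five engorged female R. microplus, with doubtful eggs kept about 42 days to hatching. The stock was 10 mg in 0.5 mL DMSO.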

[10] = system: green peach aphid (Myzus persicae); assay: Myzus persicae spray test; settings: foliar, 120 h, 100 g/ha, after 5 days, Chinese cabbage leaf disks
Protocol: Solvent: 78.0 parts by weight acetone • 1.5 parts by weight dimethylformamide
as §1, §2
Chinese cabbage (Brassica pekinensis) leaf disks infected with all instars of the green peach aphid (Myzus persicae), are sprayed with a preparation of the active ingredient of the desired concentration.
as §3

[11] = system: adult unfed cat fleas (Ctenocephalides felis); assay: Ctenocephalides felis oral test; settings: 48 h, 100 ppm in cattle blood, after 2 days
Procedure, shortened: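 Percent flea mortality recorded at 2 days. Compound was dissolved in dimethyl sulfoxide and diluted into cattle blood, which ~20 unfed adult cat fleas ingested through parafilm from a 37°C-heated chamber, their own chamber kept at room temperature.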

Structure (SMILES) | mortality at 500 g/ha [1] | pest or weed control at 1 µg/cm2, 100 g/ha [2] | pest or weed control at 5 µg/cm2, 500 g/ha [2] | pest or weed control at 32 µg/disc, 100 g/ha [3] | pest or weed control at 5 µg/cm2 [4] | mortality at 500 g/ha [5] | pest or weed control at 5 µg/cm2 [6] | mortality at 100 g/ha [7] | mortality at 4 ppm [8] | pest or weed control at 0.004 mg [9] | pest or weed control at 0.02 mg [9] | pest or weed control at 160 µg/disc, 500 g/ha ([3]; 500 g/ha (=160 μg/well)) | mortality at 100 g/ha [5] | mortality at 500 g/ha [7] | mortality at 100 g/ha [10] | mortality at 100 ppm [11]
CNc1nc([C@H](C)NC(=O)c2cc(Br)cc(Br)c2)n(-c2ncccn2)n1 [I-131] | 90% | 100% | 100% | 100% | 100% | 100% | 100% | 100% |  |  |  |  |  |  |  | 
CSc1nc(C(C)NC(=O)c2cc(Cl)cc(S(C)(=O)=O)c2)n(-c2ccc(Cl)cn2)n1 (racemic) [I-059, 3-chloro-N-[1-[2-(5-chloro-2-pyridyl)-5-methylsulfanyl-1,2,4-triazol-3-yl]ethyl]-5-methylsulfonyl-benzamide] |  |  |  | 100% | 80% | 100% | 100% |  | 100% | 100% | 100% | 100% | 100% | 100% |  | 
C[C@H](NC(=O)c1cc(OC(F)(F)F)cc(S(=O)(=O)C2CC2)c1)c1nc(N)nn1-c1ccc(C#N)cn1 [I-205] |  |  |  |  |  |  |  | 100% |  |  |  |  |  |  | 90% | 
CC(NC(=O)c1cc(Cl)cc(C(F)(F)F)c1)c1nc(NC(=O)C2(Cl)CC2)nn1-c1ncccn1 (stereo not drawn) [I-022] |  | 100% | 100% |  | 100% |  | 90% | 100% | 100% | 100% |  |  |  |  |  | 100%
C[C@H](NC(=O)c1cc(C(F)(F)F)cc(C(F)(F)F)c1)c1nc(N(C)C(=O)OC(C)(C)C)nn1-c1ncccn1 [I-133, tert-butyl N-[5-[(1S)-1-[[3,5-bis(trifluoromethyl)benzoyl]amino]ethyl]-1-pyrimidin-2-yl-1,2,4-triazol-3-yl]-N-methyl-carbamate] | 100% |  |  | 100% | 100% | 100% | 100% | 100% |  |  |  |  |  |  |  | 
CNc1nc([C@H](C)NC(=O)c2cc(Cl)cc(C(C)(C)C#N)c2)n(-c2ncccn2)n1 [I-137] | 90% |  |  | 100% | 90% | 100% | 80% | 100% |  |  |  |  |  |  |  | 
CC(=O)N(C)c1nc(C(C)NC(=O)c2cc(C(F)(F)F)cc(C(F)(F)F)c2)n(-c2ncccn2)n1 (stereo not drawn) [I-091] |  |  |  | 100% | 100% |  |  | 100% | 100% | 100% |  |  |  |  |  | 100%
CNc1nc(C(C)NC(=O)c2cc(Cl)cc(Br)c2)n(-c2ncccn2)n1 (stereo not drawn) [I-121] | 90% |  |  | 100% | 100% |  | 100% | 100% |  | 100% | 100% |  |  |  |  | 100%
CC(NC(=O)c1cc(Br)cc(Br)c1)c1nc(N)nn1-c1ccc(C(=O)N2CCOCC2)cn1 (racemic) [I-107, N-[1-[5-amino-2-[5-(morpholine-4-carbonyl)-2-pyridyl]-1,2,4-triazol-3-yl]ethyl]-3,5-dibromo-benzamide] |  |  |  |  | 90% |  |  |  | 90% |  |  |  |  |  |  | 
CC(NC(=O)c1cc(Br)cc(C(F)(F)F)c1)c1nc(N(C)C(=O)OC(C)(C)C)nn1-c1ncccn1 (stereo not drawn) [I-089] |  |  |  | 100% | 90% |  |  | 100% | 100% | 100% |  |  |  |  |  | 100%
C[C@H](NC(=O)c1cc(OC(F)(F)F)cc(C2CC2)c1)c1nc(N)nn1-c1ncccn1 [I-216] |  |  |  |  |  |  |  | 100% |  |  |  |  |  |  | 90% | 
C[C@H](NC(=O)c1cc(C(F)(F)F)cc(C(F)(F)F)c1)c1nc(N(C)C)nn1-c1ncccn1 [I-141, N-[(1S)-1-[5-(dimethylamino)-2-pyrimidin-2-yl-1,2,4-triazol-3-yl]ethyl]-3,5-bis(trifluoromethyl)benzamide] | 100% | 80% | 100% | 100% | 100% | 100% | 100% | 100% |  |  |  |  |  |  |  | 
CNc1nc(C(C)NC(=O)c2cc(Br)cc(Br)c2)n(-c2ncccn2)n1 (stereo not drawn) [I-100] |  | 100% | 100% | 100% | 100% |  | 100% | 100% | 100% | 100% |  |  |  |  |  | 100%
